Patent US20030049317A1, “Method and composition for reducing the danger and preventing the abuse of controlled release pharmaceutical formulations” (priority 2001, published 2003)
Like-named read-outs stand apart in the source and are kept apart here.

How the values were obtained:
[1] = type: in vivo; conditions: in comparison to a 15 mg dose of hydrocodone
[2] = system: morphine-like opioid agonist effects; conditions: cited from earlier work; for action of the naloxone amount in Talwin Nx: naloxone hydrochloride equivalent to 0.5 mg base

Row | Compound | Equianalgesic dose, Calculated Dose [1] [mg] | onset of effects ([2]; after intravenous administration) | action of the naloxone amount in Talwin Nx ([2]; given by injection) | action of the naloxone amount in Talwin Nx ([2]; taken orally) | block of heroin effects ([2]; one mg intravenously versus 25 mg of heroin) | effect on morphine-like opioid agonist effects ([2]; small doses (0.4-0.8 mg) intramuscularly or intravenously in humans)
1 | COc1ccc2c3c1O[C@H]1C(=O)CC[C@H]4[C@@H](C2)N(C)CC[C@]314 [Hydrocodone] | 15.0 | – | – | – | – | –
2 | C=CCN1CC[C@]23c4c5ccc(O)c4O[C@H]2C(=O)CC[C@@]3(O)[C@H]1C5 [naloxone] | – | almost immediately | profound antagonistic action to narcotic analgesics | no action when taken orally | completely block the effects of 25 mg of heroin | prevents or promptly reverses the effects of morphine-like opioid agonist
